Source: ChEMBL document CHEMBL1137173, “Synthesis of an unusual branched-chain sugar, 5-C-methyl-L-idopyranose for SAR studies of pyranmycins: implication for the future design of aminoglycoside antibiotics” (2004)
In brackets after ≈: the same amount, converted by molar mass.

Columns and labels:
[1] = test system: Escherichia coli; assay: Minimum inhibitory concentration required against Escherichia coli; format: functional
[2] = test system: Staphylococcus aureus; assay: Minimum inhibitory concentration required against Staphylococcus aureus; format: functional
[3] = test system: Ribosomal RNA A-site; assay: Binding affinity towards decoding region at A-site of 16s rRNA; format: nucleic-acid assay; design: unit not given here
[4] = Escherichia coli, read-out: MIC
[5] = Staphylococcus aureus, read-out: MIC

SMILES | MIC [1, 4] [µM] | MIC [2, 5] [µM] | Activity [3] | MIC [1] [µM] | MIC [2] [µM]
NC[C@@H]1O[C@H](O[C@H]2[C@H](O[C@@H]3O[C@H](CO)[C@@H](O)[C@H](O)[C@@H]3O)[C@H](O)[C@H](N)C[C@H]2N)[C@@H](N)[C@@H](O)[C@@H]1O | 11 (≈ 5.33 µg/mL) | 3 (≈ 1.45 µg/mL) | -320 | – | –
NC[C@@H]1O[C@H](O[C@H]2[C@@H](O)[C@H](O[C@@H]3[C@@H](O)[C@H](N)C[C@H](N)[C@H]3O[C@H]3O[C@H](CN)[C@@H](O)[C@H](O)[C@H]3N)O[C@@H]2CO)[C@H](N)[C@@H](O)[C@@H]1O [FRAMYCETIN] | 2 (≈ 1.23 µg/mL) | 3 (≈ 1.84 µg/mL) | -474 | – | –
C[C@@H]1O[C@@H](O[C@@H]2[C@H](O)[C@H](N)C[C@@H](N)[C@H]2O[C@H]2O[C@@H](CN)[C@@H](O)[C@H](O)[C@@H]2N)[C@@H](O)[C@@H](O)[C@@H]1O (stereo in doubt; form 2) | – | – | -314 | – | –
C[C@@H]1O[C@@H](O[C@@H]2[C@H](O)[C@H](N)C[C@@H](N)[C@H]2O[C@H]2O[C@@H](CN)[C@@H](O)[C@H](O)[C@@H]2N)[C@@H](O)[C@@H](O)[C@@H]1O.Cl.Cl.Cl.Cl (stereo in doubt; form 1) | – | 15 | – | 91 | –
NC[C@@H]1O[C@H](O[C@H]2[C@H](O[C@@H]3OC(CO)(CO)[C@@H](O)[C@H](O)[C@@H]3O)[C@H](O)[C@H](N)C[C@H]2N)[C@@H](N)[C@@H](O)[C@@H]1O | 22 (≈ 11.3 µg/mL) | 7 (≈ 3.6 µg/mL) | -315 | – | –
NC[C@@H]1O[C@H](O[C@H]2[C@H](O[C@@H]3O[C@H](CN)[C@@H](O)[C@H](O)[C@@H]3O)[C@H](O)[C@H](N)C[C@H]2N)[C@@H](N)[C@@H](O)[C@@H]1O | 9 (≈ 4.35 µg/mL) | 2 (≈ 0.967 µg/mL) | -394 | – | –
C[C@]1(CO)O[C@@H](O[C@@H]2[C@H](O)[C@H](N)C[C@@H](N)[C@H]2O[C@H]2O[C@@H](CN)[C@@H](O)[C@H](O)[C@@H]2N)[C@@H](O)[C@@H](O)[C@@H]1O | 87 (≈ 43.4 µg/mL) | 27 (≈ 13.5 µg/mL) | -318 | – | –
C[C@@H]1O[C@@H](O[C@@H]2[C@H](O)[C@H](N)C[C@@H](N)[C@H]2O[C@H]2O[C@@H](CN)[C@@H](O)[C@H](O)[C@@H]2N)[C@@H](O)[C@@H](O)[C@@H]1O.Cl.Cl.Cl.Cl (stereo in doubt; form 2) | – | – | – | 19 | 13
C[C@@H]1O[C@@H](O[C@@H]2[C@H](O)[C@H](N)C[C@@H](N)[C@H]2O[C@H]2O[C@@H](CN)[C@@H](O)[C@H](O)[C@@H]2N)[C@@H](O)[C@@H](O)[C@@H]1O (stereo in doubt; form 1) | – | – | -320 | – | –
